In ChEMBL document CHEMBL1201862, “PubChem BioAssay data set” (2004):
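Following 48 hours of exposure in 96-well plates, responses at five concentrations were used to interpolate endpoints linearly. GI50: concentration for 50% inhibition of growth.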 The source made the active and inactive calls. No stated cut-off is given here; in the data, active = GI50 up to about 1.1 µM and inactive = higher.

Experiments:
Assay in all cases: NCI anticancer screen, dose series, 48 h
LOX IMVI = test system: LOX IMVI
HCT-116 = test system: HCT-116
HT-29 = test system: HT-29
SK-MEL-28 = test system: SK-MEL-28
HOP-92 = test system: HOP-92
HL-60 = test system: HL-60
ACHN = test system: ACHN
SF-295 = test system: SF-295
OVCAR-8 = test system: OVCAR-8
HCC 2998 = test system: HCC 2998
Malme-3M = test system: Malme-3M
SR = test system: SR
COLO 205 = test system: COLO 205
CCRF-CEM = test system: CCRF-CEM
RXF 393 = test system: RXF 393
T47D = test system: T47D
NCI-H23 = test system: NCI-H23
HCT-15 = test system: HCT-15
SW-620 = test system: SW-620
Hs-578T = test system: Hs-578T

Row | SMILES | GI50 (LOX IMVI) | GI50 (HCT-116) | GI50 (HT-29) | GI50 (SK-MEL-28) | GI50 (HOP-92) | GI50 (HL-60) | GI50 (ACHN) | GI50 (SF-295) | GI50 (OVCAR-8) | GI50 (HCC 2998) | GI50 (Malme-3M) | GI50 (SR) | GI50 (COLO 205) | GI50 (CCRF-CEM) | GI50 (RXF 393) | GI50 (T47D) | GI50 (NCI-H23) | GI50 (HCT-15) [µM] | GI50 (SW-620) | GI50 (Hs-578T)
1 | CC(=O)NC1=C(OS(=O)(=O)c2ccc(C)cc2)CN(C)C1=O | 4.6 µM (inactive) | 3.15 µM (inactive) | 4.92 µM (inactive) | 10.3 µM (inactive) | 2.84 µM (inactive) | 2.83 µM (inactive) | 3.32 µM (inactive) | 4.1 µM (inactive) | 4.22 µM (inactive) | 2.43 µM (inactive) | 2.26 µM (inactive) | 4.6 µM (inactive) | 5.75 µM (inactive) | 1.77 µM (inactive) | 3.3 µM (inactive) | 2.12 µM (inactive) | 3.72 µM (inactive) | 2.96 | 4.68 µM (inactive) | 4.03 µM (inactive)
2 | O=[N+]([O-])/C=C/c1c(Cl)cccc1Cl | 1.37 µM (inactive) | 2.7 µM (inactive) | 2.45 µM (inactive) | 4.97 µM (inactive) | 4.9 µM (inactive) | 1.24 µM (inactive) | 2.48 µM (inactive) | 7.87 µM (inactive) | 1.4 µM (inactive) | 3.45 µM (inactive) | 3.05 µM (inactive) | 0.933 µM (active) | 0.849 µM (active) | 1.23 µM (inactive) | 10.4 µM (inactive) | 2.06 µM (inactive) | 4.46 µM (inactive) | 1.48 | 0.966 µM (active) | 9.44 µM (inactive)
3 | CCc1cc2c(c3c1CCCC3)CC1(Cc3ccc(C(=O)OC)cc3C1)C2 (centres undefined) | > 100 µM (inactive) | 54.3 µM (inactive) | 73.8 µM (inactive) | > 100 µM (inactive) | 36.7 µM (inactive) | 20.8 µM (inactive) | > 100 µM (inactive) | > 100 µM (inactive) | > 100 µM (inactive) | > 100 µM (inactive) | > 100 µM (inactive) | 28.9 µM (inactive) | > 100 µM (inactive) | 18.3 µM (inactive) | > 100 µM (inactive) | 46.8 µM (inactive) | > 100 µM (inactive) | > 100 | > 100 µM (inactive) | 60.3 µM (inactive)
4 | C=C1c2nc3ccccc3n2C=C(c2ccc(OC)cc2)N1c1ccc(OCCN2CCCCC2)cc1 | 7.41 µM (inactive) | 5.83 µM (inactive) | 20 µM (inactive) | 31.2 µM (inactive) | 28.1 µM (inactive) | 3.58 µM (inactive) | 8.24 µM (inactive) | 8.85 µM (inactive) | 7.76 µM (inactive) | 16 µM (inactive) | > 48.4 µM (inactive) | 4.44 µM (inactive) | 18.7 µM (inactive) | 2.79 µM (inactive) | 27.6 µM (inactive) | 26.6 µM (inactive) | 6.32 µM (inactive) | 4.74 | 6.27 µM (inactive) | 11.2 µM (inactive)
5 | Cc1ccc2nc(SCC(=O)N/N=C3\C(=O)Nc4ccccc43)n(-c3ccccc3)c(=O)c2c1 | 15.6 µM (inactive) | 15.1 µM (inactive) | 19.4 µM (inactive) | 15.4 µM (inactive) | 14.3 µM (inactive) | 25.5 µM (inactive) | 13.8 µM (inactive) | 15.8 µM (inactive) | – | 14.8 µM (inactive) | 20.2 µM (inactive) | 19.5 µM (inactive) | 13.4 µM (inactive) | 18.4 µM (inactive) | 14.1 µM (inactive) | 15.5 µM (inactive) | 16.4 µM (inactive) | 17.2 | 23.6 µM (inactive) | 17.8 µM (inactive)
6 | CC(C)NC(=O)OCc1c(COC(=O)NC(C)C)n(C)c2c1ccc1sccc12 | 7.94 µM (inactive) | 11.1 µM (inactive) | 24.2 µM (inactive) | 18.1 µM (inactive) | 4.9 µM (inactive) | > 100 µM (inactive) | 7 µM (inactive) | 10 µM (inactive) | > 100 µM (inactive) | 15.2 µM (inactive) | 3.15 µM (inactive) | 4.19 µM (inactive) | 13.6 µM (inactive) | 10.2 µM (inactive) | 12.2 µM (inactive) | 17.3 µM (inactive) | 7.4 µM (inactive) | 16.9 | 16.2 µM (inactive) | 13.6 µM (inactive)
7 | COc1cc(C[C@@]2(C)[C@@H]3CCC[C@H](CO)[C@@]3(C)CC[C@@H]2C)c(Cl)c(OC)c1 | 17.8 µM (inactive) | 12.2 µM (inactive) | 13.3 µM (inactive) | 26.2 µM (inactive) | 14.5 µM (inactive) | 17.6 µM (inactive) | 16 µM (inactive) | 16.3 µM (inactive) | 16 µM (inactive) | 16.1 µM (inactive) | 16.2 µM (inactive) | 16 µM (inactive) | 15.3 µM (inactive) | 29.4 µM (inactive) | 11.6 µM (inactive) | 9.53 µM (inactive) | 19.6 µM (inactive) | 16.7 | 29.2 µM (inactive) | 21.5 µM (inactive)
8 | C/C(=C/CO[Si](C)(C)C(C)(C)C)C(=O)N(C)c1ccccc1I | 17.3 µM (inactive) | 13 µM (inactive) | 10 µM (inactive) | 17.9 µM (inactive) | 10.5 µM (inactive) | 12.2 µM (inactive) | 17.3 µM (inactive) | 16.5 µM (inactive) | 16.9 µM (inactive) | 14.3 µM (inactive) | 14.3 µM (inactive) | 11.6 µM (inactive) | 18.5 µM (inactive) | 15.2 µM (inactive) | 16.6 µM (inactive) | 14.8 µM (inactive) | 22 µM (inactive) | 18.6 | 17.6 µM (inactive) | 18.2 µM (inactive)
9 | CCC1(C(=O)OC(C)(C)C)OC12C(C)CCCC2C (centres undefined) | 32.1 µM (inactive) | 52.8 µM (inactive) | 39.5 µM (inactive) | > 100 µM (inactive) | 34.2 µM (inactive) | 17.8 µM (inactive) | 24.2 µM (inactive) | 38.4 µM (inactive) | 78.7 µM (inactive) | 18.3 µM (inactive) | 56.2 µM (inactive) | 18.5 µM (inactive) | 23.9 µM (inactive) | 18.7 µM (inactive) | 19.8 µM (inactive) | 32.9 µM (inactive) | 83.6 µM (inactive) | 36 | 29.5 µM (inactive) | 90.2 µM (inactive)
10 | CSC(=S)OC1CC(n2cnc3c(NC(=O)c4ccccc4)ncnc32)OC1CO[Si](C)(C)C(C)(C)C (centres undefined) | 8.55 µM (inactive) | 7.82 µM (inactive) | 9.18 µM (inactive) | 33.3 µM (inactive) | 13.9 µM (inactive) | 2.84 µM (inactive) | 13.8 µM (inactive) | 9.82 µM (inactive) | 13.3 µM (inactive) | 9.02 µM (inactive) | 21.1 µM (inactive) | 11 µM (inactive) | 5.85 µM (inactive) | 3.5 µM (inactive) | 4.35 µM (inactive) | 5 µM (inactive) | 13.2 µM (inactive) | 13.2 | 12.5 µM (inactive) | 38.8 µM (inactive)
11 | C/C(=C\COc1ccc2ccc(=O)oc2c1)CCC(=O)C(C)(C)O | 13.8 µM (inactive) | 15.6 µM (inactive) | 23.2 µM (inactive) | 39.9 µM (inactive) | 26.4 µM (inactive) | 15.2 µM (inactive) | 31.3 µM (inactive) | 38.4 µM (inactive) | 23.3 µM (inactive) | 19.9 µM (inactive) | 44.9 µM (inactive) | 15.3 µM (inactive) | 20.7 µM (inactive) | 16.4 µM (inactive) | 14.4 µM (inactive) | 29.9 µM (inactive) | 33 µM (inactive) | 17.1 | 19.5 µM (inactive) | 26.4 µM (inactive)
12 | O=C1C(c2ccc([N+](=O)[O-])cc2)=C(Cl)C(=O)c2c(O)cccc21 | 17.3 µM (inactive) | 27.9 µM (inactive) | 21 µM (inactive) | 18.9 µM (inactive) | 19 µM (inactive) | 4.12 µM (inactive) | 18.5 µM (inactive) | > 54.1 µM (inactive) | 27.5 µM (inactive) | 52.6 µM (inactive) | 19.6 µM (inactive) | > 100 µM (inactive) | 17.3 µM (inactive) | 4.56 µM (inactive) | 14.7 µM (inactive) | 20.9 µM (inactive) | 18.1 µM (inactive) | 25.5 | 4.18 µM (inactive) | 26.8 µM (inactive)
13 | O=S(=O)(O)c1cc(/N=[N+](\[O-])c2cc(S(=O)(=O)O)c3ccccc3c2)cc2ccccc12 | 25.2 µM (inactive) | > 100 µM (inactive) | > 100 µM (inactive) | > 100 µM (inactive) | > 100 µM (inactive) | 30 µM (inactive) | > 100 µM (inactive) | 35.6 µM (inactive) | > 100 µM (inactive) | > 100 µM (inactive) | 45.5 µM (inactive) | 38.5 µM (inactive) | > 100 µM (inactive) | 29.7 µM (inactive) | 43.5 µM (inactive) | > 100 µM (inactive) | 25.5 µM (inactive) | > 100 | 31.8 µM (inactive) | 33.5 µM (inactive)
14 | CS(=O)(=O)N1CC(CCl)c2ccc(O)cc21 (centres undefined) | 3.57 µM (inactive) | 2.71 µM (inactive) | 2.86 µM (inactive) | 3.4 µM (inactive) | 3.11 µM (inactive) | 1.57 µM (inactive) | 3.4 µM (inactive) | 2.95 µM (inactive) | 2.08 µM (inactive) | 1.95 µM (inactive) | 2.19 µM (inactive) | 2.84 µM (inactive) | 1.9 µM (inactive) | 1.58 µM (inactive) | 1.4 µM (inactive) | 7.4 µM (inactive) | 2.02 µM (inactive) | 3.15 | 2.6 µM (inactive) | 4.32 µM (inactive)
